{
  "source": "patent US12172967B1",
  "about": "“3-(4,5-bis(4-bromophenyl)-2-(4-chlorophenyl)-1H-imidazol-1-yl)propanoic acid as an antimicrobial compound” (KING FAISAL UNIVERSITY, priority 2023, dated 2024)",
  "format_in_all_cases": "cell-based",
  "key": {"Bacillus cereus": {"tested_on": "Bacillus cereus", "test": "agar plate disc-diffusion, antibacterial, Bacillus cereus", "conditions": "nutrient agar, 37° C., 48 h", "protocol": "(§1) The agar plate disc-diffusion method was applied. […] The discs were then placed onto the surface of agar plates (nutrient agar for bacteria and Sabouraud's dextrose agar for fungi) seeded with the test organism. Each plate contained 15 mL of the agar medium, previously seeded with 0.2 mL of the broth culture of each organism pregrown for 18 h. The plates were incubated at 37° C. for 48 h, and 72 h for fungi. The inhibition zones was measured in mm. Discs impregnated with DMSO were used as a control, and its inhibition zone was subtracted from the tested compound actual inhibition zone."}, "[1]": {"tested_on": "Chrysosporium keratinophilum", "test": "agar plate disc-diffusion, antifungal, Chrysosporium keratinophilum", "conditions": "Sabouraud's dextrose agar, 37° C., 72 h", "protocol": "as §1"}, "Pseudomonas aeruginosa": {"tested_on": "Pseudomonas aeruginosa", "test": "agar plate disc-diffusion, antibacterial, Pseudomonas aeruginosa", "conditions": "nutrient agar, 37° C., 48 h", "protocol": "as §1"}, "Staphylococcus aureus": {"tested_on": "Staphylococcus aureus", "test": "agar plate disc-diffusion, antibacterial, Staphylococcus aureus", "conditions": "nutrient agar, 37° C., 48 h", "protocol": "as §1"}, "Aspergillus flavus": {"tested_on": "Aspergillus flavus", "test": "agar plate disc-diffusion, antifungal, Aspergillus flavus", "conditions": "Sabouraud's dextrose agar, 37° C., 72 h", "protocol": "as §1"}, "Escherichia coli": {"tested_on": "Escherichia coli", "test": "agar plate disc-diffusion, antibacterial, Escherichia coli", "conditions": "nutrient agar, 37° C., 48 h", "protocol": "as §1"}, "[2]": {"conditions": "A = concentration of comp. = 10,000 μL"}, "[3]": {"conditions": "B = concentration of comp. = 30,000 μL"}, "[4]": {"conditions": "C = concentration of comp. = 50,000 μL"}},
  "data": [
    {"smiles": "O=C(O)CCn1c(-c2ccc(Cl)cc2)nc(-c2ccc(Br)cc2)c1-c1ccc(Br)cc1", "note": "[V, 3-(4,5-bis(4-bromophenyl)-2-(4-chlorophenyl)-1H-imidazol-1-yl)propanoic acid]", "values": [
      {"measurement": "inhibition zone, Bacillus Cereus, A", "setting": "Bacillus cereus; [2]", "value": 19, "unit": "mm"},
      {"measurement": "inhibition zone, Bacillus Cereus, B", "setting": "Bacillus cereus; [3]", "value": 21, "unit": "mm"},
      {"measurement": "inhibition zone, Bacillus Cereus, C", "setting": "Bacillus cereus; [4]", "value": 29, "unit": "mm"},
      {"measurement": "inhibition zone, Chrysosporium keratinophilum, A", "setting": "[1]; [2]", "value": 24, "unit": "mm"},
      {"measurement": "inhibition zone, Chrysosporium keratinophilum, B", "setting": "[1]; [3]", "value": 26, "unit": "mm"},
      {"measurement": "inhibition zone, Chrysosporium keratinophilum, C", "setting": "[1]; [4]", "value": 47, "unit": "mm"},
      {"measurement": "inhibition zone, Pseudomonas aeruginosa, A", "setting": "Pseudomonas aeruginosa; [2]", "value": 25, "unit": "mm"},
      {"measurement": "inhibition zone, Pseudomonas aeruginosa, B", "setting": "Pseudomonas aeruginosa; [3]", "value": 27, "unit": "mm"},
      {"measurement": "inhibition zone, Pseudomonas aeruginosa, C", "setting": "Pseudomonas aeruginosa; [4]", "value": 41, "unit": "mm"},
      {"measurement": "inhibition zone, Staphylococcus aureus, A", "setting": "Staphylococcus aureus; [2]", "value": 17, "unit": "mm"},
      {"measurement": "inhibition zone, Staphylococcus aureus, B", "setting": "Staphylococcus aureus; [3]", "value": 19, "unit": "mm"},
      {"measurement": "inhibition zone, Staphylococcus aureus, C", "setting": "Staphylococcus aureus; [4]", "value": 26, "unit": "mm"},
      {"measurement": "inhibition zone, Aspergillus flavus, A", "setting": "Aspergillus flavus; [2]", "value": 23, "unit": "mm"},
      {"measurement": "inhibition zone, Aspergillus flavus, B", "setting": "Aspergillus flavus; [3]", "value": 27, "unit": "mm"},
      {"measurement": "inhibition zone, Aspergillus flavus, C", "setting": "Aspergillus flavus; [4]", "value": 36, "unit": "mm"},
      {"measurement": "inhibition zone, Escherichia coli, A", "setting": "Escherichia coli; [2]", "value": 28, "unit": "mm"},
      {"measurement": "inhibition zone, Escherichia coli, B", "setting": "Escherichia coli; [3]", "value": 37, "unit": "mm"},
      {"measurement": "inhibition zone, Escherichia coli, C", "setting": "Escherichia coli; [4]", "value": 51, "unit": "mm"}
    ]}
  ]
}
